Results taken from patent publication US12594296B2, “Methods for treatment or prevention of damage resulting from radiation, trauma or shock” (priority 2012, dated 2026).
Entries after “also recorded” stand apart in the source; their conditions may differ. Where two headings read alike, the source gives them in different places. Bridge positions count the residues as written; N and C are the ends. Square brackets hold non-standard residues; d marks the D form. Peptide text beside a SMILES is read from it. * marks the point of attachment. Ileψ(thiazoline)Cys = CC[C@H](C)[C@H](N)C1=N[C@H](C(=O)*)CS1; dOrn = NCCC[C@@H](N)C(=O)O

Legend:
[1] = tested on: Clostridium perfringens; format: in vivo, chicks
[2] = tested on: A431 epidermal cells; assay: Scratch healing of confluent A431 epidermal cell monolayer; format: cell-based; conditions: serum free DMEM; 24, 48, 72 or 96 hours
Description: A431 epidermal cells were seeded into 4-well chamber slides in DMEM plus 10% FBS at a density to be confluent the next day (5×10^5/well (˜1.8 cm^2)). The following day, a scratch was made across the confluent monolayer using a sterile 10 μl tip. The medium was aspirated and the wells rinsed with DMEM to remove floating debris. Serum free DMEM was added to all wells, plus or minus PAAG (18 kD, 25% functionalization) or EGF as a positive control. Cells were treated for 24, 48, 72 or 96 hours. Cells were fixed with paraformaldehyde at the indicated times and stained with hematoxylin for better visualization. A representative scratch at time 0 is duplicated at the top of each column of treatments for comparison depicted in FIG. 13.

[3] = Irradiation biomarkers in plasma (pro-calcitonin, citrulline) (Example 10)
[4] = tested on: mice exposed to ionizing radiation; assay: Survival after three doses of total body radiation (Example 11); format: in vivo, CB57BL/6 mice; conditions: for mortality, vehicle versus PAAG: 50 mg/kg once a day oral gavage
Description: Male CB57BL/6 mice of the same weight and age were subjected to radiation doses of 12.5, 13.5 and 14.0 Gy. Animals were given the same dose of PAAG (50 mg/kg once a day) by oral gavage as in the previous study. Eighteen (18) animals were studied in each of […]: irradiated control and active PAAG at each dose. Mortality data is shown in FIG. 30 for three doses of total body radiation treated with vehicle or PAAG given via oral gavage daily.

[5] = tested on: mice exposed to ionizing radiation; assay: Total body irradiation study: survival and body weight (Example 1); format: in vivo; conditions: for Percent Dead Per Group: 50 mg/kg p.o. q.d. + 200 ppm in drinking water Days 1-18
Description: Male mice were exposed to an acute irradiation dose on Day 0 of 0, 12.5, or 13.0 Gy at a rate of 1 Gy/min with lead shielding to the left hind limb. Starting 24 hours after irradiation, the mice were untreated or treated with PAAG or vehicle control, given with 50 mg/kg via oral gavage daily and dosed ad libitum in the drinking water (200 ppm PAAG) from days 1 to 18. The treatment groups are summarized on TABLE 1.
The total body irradiation study was performed as described above with control vehicle or PAAG (86 kDa and 30% functionalization) administered to the mice at the indicated final concentrations. […] As shown in the Kaplan-Meier Survival Plot in FIG. 1, there was no mortality in animals that were not irradiated. […] In fact, 88% of the treated animals survived while only 19% of the untreated animals survived. […] The comparative mortality data from these experiments is tabulated on TABLE 2.

[6] = tested on: Acinetobacter baumaunii; assay: Caco2 attachment of Acinetobacter baumannii; format: cell-based; conditions: pretreatment 200 μg/mL 1 h; relative to untreated cells
Description: Caco2 Attachment. The gut epithelium cell line (Caco2) were grown in Eagle's Minimal Essential Media (EMEM) supplemented with 10% (v/v) fetal bovine serum and 2 mm L-glutamine. Caco2 cells were seeded at 2.5×10^5 per well in 24 well plates and incubated at 37° C. and in atmosphere of 5% CO2 for 24 hours to confluency. The cells were then rinsed twice with D-PBS and replaced with (EMEM) without fetal bovine serum for another 24 hours. Cells were rinsed with D-PBS twice and replaced with media containing no fetal bovine serum. Pretreatment of the cells with PAAG 200 ug/ml (86 kDa, 30% functionalization; 37 kDa, 22% functionalization; and 27 kDa, 21% functionalization) dissolved in media without serum for one hour was performed and the cells were then rinsed twice with D-PBS to remove any non-adherent PAAG. After rinsing, the cells were inoculated with Acinetobacter baumaunii in growth phase at a multiplicity of infection (MOI) of 1:100 for one hour. Cells were then rinsed twice with D-PBS before being lysed using 0.5% Triton X-100 in D-PBS. Supernatants were extracted and serially diluted, plated and counted for bacterial attachment.
(§1) Pretreatment and binding studies were performed as described above for Caco2 cells with Acinetobacter attachment and Burkholderia cepacia macrophage uptake studies, with the PAAG (86 kDa and 30% functionalization) added to the indicated final concentrations.

[7] = tested on: IL-8 production in U937 cells; assay: IL-8 production response in LPS-stimulated U937 cells (IL-8 ELISA); format: cell-based, human; conditions: 1 h pretreatment, rinsed, LPS 10 ng/ml 4 h; relative to control or lactoferrin pretreatment
[8] = tested on: irradiated left buccal cheek pouch (oral mucositis); assay: Oral mucositis scheduling study (Example 3); format: in vivo, hamsters; conditions: 200 ppm thrice daily Day -1 to 14 or Day 10 to 36, relative to Day -7 to 36 or Day -1 to 36
Description: In a scheduling study, an acute dose of irradiation of 40 Gy directed to the left buccal cheek pouch and the hamsters were treated t.i.d. with 200 μg/mL PAAG or vehicle control directly inserted into the pouch. Schedules included PAAG treatment Day—7 to 36, Day—1 to 36, Day—1 to 14, and Day 10-36. Mean % weight change and mucositis score were recorded. Oral mucositis scheduling study was performed as described above with PAAG (86 kDa and 30% functionalization) added to the indicated final concentrations. The mean mucositis scores for a vehicle control and 200 ppm PAAG administered thrice daily from Day—7 to 36, Day—1 to 36, Day—1 to 14, or Day 10 to 36 is shown in FIG. 7. […] dosed with 200 ppm PAAG administered thrice daily from Day—1 to 14 or from Day 10 to 36 have a reduced mean mucositis score relative to mice dosed with 200 ppm PAAG thrice daily from Day—7 to 36 or from Day—1 to 36.

[9] = tested on: small intestine of irradiated C57BL/6 mice
[10] = tested on: Burkholderia cepacia; assay: Burkholderia cepacia macrophage uptake (U937); format: cell-based; conditions: pretreatment of U937 with 200 μg/mL; relative to untreated cells
Description: Burkholderia cepacia macrophage uptake. The myeloid cell line (U937) were grown in RPMI 1640 supplemented with 10% (v/v) fetal bovine serum and 2 mm L-glutamine. Cells were seeded at 6×10^5 cells per well in 24 well plates in RPMI 1640 additionally supplemented with 0.1 ug PMA for 48 hours to activate U937 cells to be macrophage-like. Cell media was replaced with cell media without fetal bovine serum and PMA for at least 2 hours. Treatments consisted of either PAAG (200 ug/ml) treated on cells for one hour and being rinsed with D-PBS twice before inoculation or with PAAG treatment with no rinse. Upon completion of pretreatment with PAAG, cells were inoculated with Burkholderia cepacia in growth phase with an MOI of 1:10 for 45 min. After inoculation period media is supplemented with 50 ug/ml of gentamicin for another 45 min. Cells were then rinsed twice with D-PBS before being lysed using 0.5% Triton X-100 in D-PBS and serially diluted, plated and counted for bacterial uptake.
as §1

[11] = tested on: irradiated left buccal cheek pouch (oral mucositis); assay: Mucosal radiation dose ranging study, oral mucositis (Example 2); format: in vivo, Syrian Golden hamsters; conditions: 40 Gy to cheek pouch; 50, 100, 250 and 500 μg/mL t.i.d. into the pouch
Description: In a dose ranging study, an acute dose of irradiation of 40 Gy directed to the left buccal cheek pouch of Syrian Golden hamsters and the hamsters were treated t.i.d. with 50, 100, 250 and 500 μg/mL PAAG or vehicle control directly inserted into the pouch. Mean % weight change and mucositis score were recorded. The mucosal radiation dose ranging study was performed as described above with PAAG (86 kDa and 30% functionalization) added to the indicated final concentrations. […] A comparison of the mean percent weight gain for […] dosed with vehicle control and four dosing concentrations of PAAG is shown in FIG. 4. […] The healing effect of PAAG is shown in FIG. 6, which depicts the comparison of the percentage of animals with a mucositis score of 3 or higher on a given day post irradiation for a vehicle control and three doses of PAAG.

[12] = tested on: bacteria in the mesenteric lymph nodes; assay: Intestinal bacterial translocation: bacterial count in mesenteric lymph nodes (Example 9); conditions: irradiated animals, 13 Gy; FIG. 16
[13] = tested on: MRSA strain MW2 (ATCC BAA-1707); assay: Nasal epithelium/MRSA binding assay (RPMI-2650 cells); format: cell-based; conditions: pretreatment 200 or 500 ppm for 5 and 60 minutes; compared to PBS and media controls
[14] = 13 Gy, day 4, quantitative histology, FIG. 19

With CC[C@H](C)[C@H](N)C1=N[C@H](C(=O)N[C@@H](CC(C)C)C(=O)N[C@H](CCC(=O)O)C(=O)N[C@H](C(=O)N[C@H]2CCCCNC(=O)[C@H](CC(N)=O)NC(=O)[C@@H](CC(=O)O)NC(=O)[C@H](Cc3cnc[nH]3)NC(=O)[C@@H](Cc3ccccc3)NC(=O)[C@H]([C@@H](C)CC)NC(=O)[C@@H](CCCN)NC2=O)[C@@H](C)CC)CS1 [Bacitracin, reference compound] ({Ileψ(thiazoline)Cys}-L[dE]IK[dOrn]I[dF]H[dD]N; lactam 4-C) the “mortality relative to control” value ([1]; ad libitum in water, PAAG at 100 ppm) was “reduced mortality with statistical significance; also recorded: reduced morality with statistical significance”.

For “EGF: EGF as a positive control [reference compound]”, the healing of scratches [2] was “faster than control”.

In the case of “poly (acetyl, arginyl) glucosamine [PAAG (18 kD, 25% functionalization)]”, the healing of scratches [2] was “faster than control”.

With “poly (acetyl, arginyl) glucosamine [PAAG (22 kD, 36% functionalization)]” the “mortality relative to control” value ([1]; in vivo) was “reduced mortality with statistical significance; also recorded: reduced morality with statistical significance” and the treated animals died ([1]; in vivo) was 15%.

In the case of “poly (acetyl, arginyl) glucosamine [PAAG]”, the “citrulline reduction versus untreated irradiated animals” value ([3]; 13 Gy) was “statistically less”, the “circulating plasma levels of PCT relative to controls” value ([3]; 13 Gy, oral gavage once a day) was “reduced” and the “circulating amounts of citrulline relative to control” value ([3]; day 3 and 4 after lethal ionizing radiation) was “increased”. For the same compound, the “mortality, vehicle versus PAAG” value ([4]; 12.5 Gy) was “numerically significant”, the “mortality, vehicle versus PAAG” value ([4]; 13.5 Gy) was “not statistically different” and the “mortality, vehicle versus PAAG” value ([4]; 14.0 Gy) was “not statistically different”. For the same compound, the mortality ([4]; after LD70 ionizing radiation) was “reduced”, the adverse effects ([4]; any dose) was “No adverse effects” and the “survival difference between treated and untreated groups” value ([5]; 12.5Gy of radiation, p=0.081) was “No statistical difference”. The “Percent Dead Per Group” value ([5]; 12.5 Gy, n=16) was 31.25%, the “No. of Death” value ([5]; 12.5 Gy, Day 5, euthanized, n=16) was 1 and the “No. of Death” value ([5]; 12.5 Gy, Day 6, euthanized, n=16) was 1. The “No. of Death” value ([5]; 12.5 Gy, Day 7, euthanized, n=16) was 3, the “Percent Dead Per Group” value ([5]; 13.0 Gy, based on n=15) was 13.33^¶ Percent and the “No. of Death” value ([5]; 13.0 Gy, Day 6, found dead, n=15) was 1. For the same compound, the “No. of Death” value ([5]; 13.0 Gy, Day 18, euthanized, n=15) was 1, the “survival difference vehicle versus PAAG” value ([5]; LD 80 dose (13.0 Gy), p<0.0001) was “very significant” and the treated animals survived ([5]; LD 80 dose of radiation (13.0 Gy), untreated 19%) was 88%. The “mean percent weight change” value ([5]; compared with untreated animals, FIG. 2) was “no significant effect”, the “Percent Dead Per Group” value ([5]; no radiation, n=5) was 0% and the “No. of Death” value ([5]; no radiation, n=5) was 0. The “percentage of bacteria bound to Caco2 cells” value [6] was “decreases”, the “LPS activated IL-8 response” value [7] was “reduced” and the mean mucositis score [8] was “reduced”. For the same compound, the crypt degeneration ([9]; 13 Gy, day 2, 50 mg/kg PO) was “mild to moderate”, the “villi height, structure and epithelium” value ([9]; 13 Gy, day 2, 50 mg/kg PO) was “retained their normal height and structure” and the crypt regeneration ([9]; 13 Gy, day 3, 50 mg/kg PO) was “mild to moderate”. The villi blunting ([9]; 13 Gy, day 3, 50 mg/kg PO) was “minimally blunted”, the crypt loss ([9]; 13 Gy, day 4, 50 mg/kg PO) was “moderate to marked” and the crypt regeneration ([9]; 13 Gy, day 4, 50 mg/kg PO) was “moderate to marked”. For the same compound, the “loss of villous epithelium” value ([9]; 13 Gy, day 4, compared with vehicle group 3) was “not as severe as in group 3 animals”, the “GI inflammation relative to control” value [9, 14] was “reduced” and the “crypt loss relative to control” value [9, 14] was “reduced”. For the same compound, the “epithelial loss relative to control” value [9, 14] was “reduced”, the “crypt degeneration versus vehicle-treated mice” value ([9]; 13 Gy, days 2-4) was “less severe” and the “inflammation versus vehicle-treated mice” value ([9]; 13 Gy, days 2-4) was “reduced”. For the same compound, the “protection from the gastrointestinal effects of total body irradiation” value ([9]; 13 Gy, days 2-4) was “partially protected”, the small intestine histology ([9]; mouse, in vivo, po, 50 mg/kg) was “essentially normal” and the “percentage of bacterial invasion by Burkholderia cepacia” value [10] was “decreases”. The “course of oral mucositis” value [11] was “modulated the course of oral mucositis”, the “bacteria in the MLN (CFU/g) versus vehicle control group” value [12] was “dramatically less” and the “binding of MRSA to nasal epithelial cells” value [13] was “decreases”.
